According to US7589080B2, “β-cyclodextrin compositions, and use to prevent transmission of sexually transmitted diseases” (priority 2000, dated 2009):

Tests used:
[1] = tested on: HIV-1 primary strain 97.099, M-tropic (R5); experiment: Primary virus infection assay, isolate 97.099; format: cell-based; settings: PHA blasts treated with 10 mM; p24 after 6 days
Experimental: Peripheral blood mononuclear cells (PBMCS) were isolated by Ficoll-Hypaque centrifugation from buffy coats obtained from the Johns Hopkins Hemapheresis Center. Cells were stimulated for 3 days with 3 Tg/ml PHA, washed with iRPMI, and treated with 10 mM 2-OH-βCD in cRPMI for 1 hr. Cells were then washed twice with iRPMI and resuspended in cRPMI (1×10^6/ml) supplemented with 50 U/ml IL-2 and containing primary HIV-1 strains at 20 ng/ml p24. Cells were incubated with virus for 24 hr at 37° C. before washing twice with iRPMI. Cells were then resuspended in cRPMI supplemented with 50 U/ml IL-2 and cultured for 6 days at 37° C. Supernatants were collected and p24 was quantitated by standard p24 ELISA.
βCD treatment blocks HIV-1 virus infection. HIV-1 can spread in cell cultures without necessarily exerting cytopathic effects. […] To test the effects of cholesterol depletion on HIV-1 infection of primary T cells by free virus, PHA blasts were treated with 10 mM 2-OH-βCD or medium alone, then were exposed to HIV-1 for 2 hr before washing to remove input virus. Viability and growth of the PHA blasts was not affected by treatment with the βCD under the conditions used. P24 release was measured after an addition 6 days in culture. Two primary strains of HIV-1, 97.099 and 97.534, M-tropic (R5) and dual-tropic (X4R5), respectively, were tested.

[2] = tested on: CXCR4; experiment: Flow cytometry of CXCR4 surface expression; format: cell-based
Experimental: (§1) Flow cytometry was performed as previously described (Orentas and Hildreth, supra, 1993). Briefly, 2×10^5 2-OH-βCD treated or untreated cells in 100 μl PBS containing 5% normal goat serum (NGS) were added to 100 μl of MAb (1-5 μg) and incubated 30 min on ice. In comparative experiments we prefixed the cells with 2% paraformaldehyde in PBS immediately after 2-OH-βCD treatment. Cells were washed with PBS, resuspended in 100 μl of PBS, 5% NGS containing 2 Tg of FITC conjugated-goat anti-mouse IgG (FITC-GAM) and incubated 1 h on ice. Cells were then washed with PBS and fixed with 2% paraformaldehyde followed by analysis on an EPICS Profile II flow cytometer.
(§2) Cholesterol depletion also promoted CXCR4 down-modulation by MAb-induced internalization. A possible explanation for the inhibition of syncytium formation by cholesterol depletion as described above is that CD4, CRs, or both are lost from the cell surface, for example, by extrusion from the membrane in vesicles after loss of cholesterol, or they could be internalized. To explore these possibilities, βCD treated cells were examined for expression of HIV receptors by flow cytometry. […] In contrast, cell surface expression of CXCR4 was reduced by 50% or more in all of the cells after 2-OH-βCD treatment (Table 1).
In order to determine whether the loss of CXCR4 expression was due to MAb-induced internalization, cells were fixed with 2% paraformaldehyde in PBS immediately after 2-OH-βCD treatment and before staining with MAbs for flow cytometry.

[3] = tested on: CCR5; experiment: Flow cytometry of CCR5 expression on primary T cells; format: cell-based; settings: primary T cells after treatment (19% before)
Experimental: as §1, §2

[4] = tested on: HSV-2 strain G; experiment: HSV mouse vaginal challenge model; format: in vivo, CD-1 mice; settings: HSV-2 preincubated with 3%, intravaginal 1×10^4 TCID50; p=0.022
Experimental: The ability of 2-OH-βCD to reduce the infectiousness of HIV-1 (Examples 2 and 3) led to an investigation as to the general applicability of βCDs to prevent the transmission of other sexually transmitted enveloped viruses. A well characterized HSV mouse vaginal challenge model was used to examine the effect of 2-OH-βCD on HSV-2 infection (Sherwood et al., supra, 1996). Adult female CD-1 mice (Charles River Breeding Laboratories; Wilmington Mass.) were injected subcutaneously with Depo-Provera® progestin (2 mg) to increase their sensitivity, then one week later the mice were inoculated intravaginally with 1×10^4 TCID50 of cell-free HSV-2 strain G (10 ID50) using a WIRETROL capillary micropipette (Drummond Scientific; Broomall Pa.). Infection was confirmed by lavage culture on newborn foreskin fibroblast cells (Biowhitaker). Prior to inoculation, HSV-2 was preincubated either with 3% 2-OH-βCD or with buffer.

[5] = tested on: HIV-1; experiment: Virus production and infectivity of virions from cholesterol-depleted cells; format: cell-based
Experimental: PM1 cells chronically infected with HIV-1RF were washed and treated with 20 mM 2-OH-βCD in cRPMI or with cRPMI alone for 1 hr at 37° C. The cells were then washed twice before resuspension at a density of 5×10^6/ml in cRPMI. The cells were incubated for 6 hrs at 37° C., 5% CO2 and pelleted by centrifugation. Supernatants, which contained the virus, were collected and purified by centrifugation through a 20% sucrose cushion (Liao et al., supra, 2000). The virus pellets were taken up in cRPMI and titrated against LuSIV cells to determine infectivity. P24 was measured in a standard p24 ELISA.
The effect of 2-OH-βCD on infectivity of HIV was measured in a Luciferase-based single cycle infection assay as previously described (Liao et al., supra, 2000). LuSIV cells were treated with 20 mM 2-OH-βCD in iRPMI or iRPMI alone for 1 hr at 37° C. Cells were then washed with iRPMI before being resuspended in cRPMI at a density of 2×10^6/ml. Cells in 100 Tl were mixed with cRPMI or with dilutions of virus supernatant (62 to 500 pg/ml of p24) from 2-OH-βCD-treated or untreated PM1 cells and allowed to incubate overnight (16 hr) at 37° C. […] After centrifugation at 13,000×g for 30 seconds, 10, μl of lysate were added to 100 μl Luciferase Reagent (Promega) in an opaque 96 well plate and luminescence was measured on a Packard Lumicount luminometer (Downers Grove, Ill.).

2-hydroxypropyl-β-cyclodextrin [2-OH-βCD]
Infection of PHA blasts by HIV isolate 97.099 (p24 release) [1]: completely inhibited
CXCR4 (MCF) ([2]; H9, 20 mM, fixed with 2% paraformaldehyde immediately after treatment): 55 MCF
CXCR4 (MCF) ([2]; H9 cells, 20 mM, not fixed before staining): 6.7 MCF
CXCR4 (MCF) ([2]; MT2 cells, 20 mM, not fixed before staining): 16.7 MCF
CXCR4 (MCF) ([2]; PM1, 20 mM, fixed with 2% paraformaldehyde immediately after treatment): 64 MCF
CXCR4 (MCF) ([2]; PM1 cells, 20 mM, not fixed before staining): 3.1 MCF
CXCR4 (MCF) ([2]; SupT1, 20 mM, fixed with 2% paraformaldehyde immediately after treatment): 91 MCF
CXCR4 (MCF) ([2]; SupT1 cells, 20 mM, not fixed before staining): 15.0 MCF
Reduction of cell surface expression of CXCR4 ([2]; all of the cells, not fixed before staining): ≥ 50%
Anti-CXCR4 MAb staining compared to control cells ([2]; cells fixed and permeabilized after the MAb binding step): no significant reduction
CXCR4 expression on the cell surface ([2]; cells fixed immediately after treatment, before MAb staining): remained unchanged
CCR5 expression, cells staining positive [3]: 8%
Mice that became infected [4]: 5 of 10
Infectivity of virions from cholesterol-depleted cells [5]: significantly less infectious
Production of HIV-1 virions from cholesterol-depleted cells [5]: dramatically decreased
